Measured values as given in patent publication US9353154B2, “Compositions for labeling nerves and methods of use” (Avelas Biosciences, Inc., priority 2010, dated 2016).
“Also recorded” adds a separate entry of the source. Where a SMILES comes first, the peptide text is derived from it. The star is where a group is joined. 6FAM = O=C1OC2(c3ccc(O)cc3Oc3cc(O)ccc32)c2cc(C(=O)*)ccc21

Legend:
[1] = Plasma digestion of Peptide A followed by LC-MS; type: in vitro ADME; conditions: mouse plasma, 37° C.
Description: (§1) 6-Carboxylfluorescein (6-FAM) labeled peptide A (1 mg) was added to freshly prepared mouse plasma (0.5 mL). The resulting solution was gently mixed and incubated at 37° C. The reaction was followed by an LC-MS at different time points. An analogous procedure was done at room temperature with 1-5 mg of Peptide A.

[2] = Stability of peptide A in saline (control); type: physicochemical; conditions: 48 h
Description: as §1
The peak was isolated by preparative RP-HPLC. […] As a control, peptide A is stable in saline after 48 h (Chart E&F, FIG. 5).

[3] = system: mouse sciatic nerve; experiment: In vivo sciatic nerve fluorescence contrast (nerve vs surrounding muscle); conditions: 150 nmol via tail vein injection, imaging at 2 h
Description: (§2) Fluorescence contrast activity of was assessed using male euthymic and immunocompetent hairless SKH1-E mice (25-35 grams). On the day of study, each involved mouse was weighed and restrained using the rotating tail injector for intravenous (tail vein) injection in conscious animal.
(§3) Test agents were injected intravenously into the tail vein (30-150 nmol in 0.1 mL/mouse). The animals were returned to assigned cage and kept under controlled environmental conditions before being examined for sciatic nerve fluorescence labeling 2 hours later.
(§4) Two hours after the intravenous injection, the mice were anesthetized with a mixture of ketamine HCl/Xylazine HCl solution administered intraperitoneally. The deeply anesthetized mice were transferred on the piece of cork for blunt dissection of sciatic nerve.
After the full body imaging, the deeply anesthetized mice were transferred on the computerized fluorescent stereomicroscope equipped with appropriate excitation/emission filters to examine and record the fluorescence specific to sciatic nerve and compare it to that documented on the surrounding tissues such as muscle. All captured images were examined and analyzed using Image J to generate quantitative data.
For each experimental group, fluorescence intensities from each mouse sciatic nerve were averaged to generate the Mean±SEM value. The background was defined as the average fluorescence intensities of the muscle tissue surrounding the sciatic nerve. The fluorescence contrast (C) is defined and calculated as C=(IN−IB)/IB, where IN is the average nerve fluorescence intensity and IB is the average proximal background intensity. Constrast>0.4 is considered good.

[4] = system: mouse skin; experiment: In vivo skin fluorescence (full body imaging, skin staining activity); conditions: 150 nmol via tail vein injection, imaging at 2 h
Description: as §2, §3, §4
Full body imaging of deeply anesthetized mouse with open surgical wound/exposed sciatic nerve was then performed using a computerized imaging system with appropriate excitation/emission filters. The full body imaging was used to calculate the skin staining activity of the visualization agents.

| Compound | digested products in plasma ([1]; 3 h) | digestion in plasma (HPLC chromatogram, 220 nm absorbance) ([1]; 20 h) | digestion in plasma (HPLC chromatogram, 220 nm absorbance) ([1]; 48 h) | major truncated component after plasma digestion ([1]; peak isolated by preparative RP-HPLC) | stability in saline [2] | fluorescence nerve contrast [3] | fluorescence nerve contrast relative to peptide A [3] | fluorescence nerve contrast ([3]; listed as peptide 3) | skin fluorescence compared to peptide A [4] | skin fluorescence compared to peptide A ([4]; listed as peptide 3) |
| --- | --- | --- | --- | --- | --- | --- | --- | --- | --- | --- |
| CC(=O)N[C@@H](CO)C(=O)N[C@@H](Cc1c[nH]cn1)C(=O)N[C@@H](CO)C(=O)N[C@@H](CC(N)=O)C(=O)N[C@H](C(=O)N[C@@H](CCC(N)=O)C(=O)N[C@H](C(=O)N[C@@H](CC(C)C)C(=O)N[C@@H](C)C(=O)N[C@@H](CCCCN)C(=O)N[C@@H](C)C(=O)N1CCC[C@H]1C(=O)N[C@@H](CCC(=O)O)C(=O)N[C@@H](Cc1c[nH]cn1)C(=O)N[C@H](C(=O)NCC(=O)N[C@@H](CCCCNC(=O)c1ccc2c(c1)C1(OC2=O)c2ccc(O)cc2Oc2cc(O)ccc21)C(N)=O)[C@@H](C)O)[C@@H](C)O)[C@@H](C)O [Peptide A, Ac-Ser-His-Ser-Asn-Thr-Gln-Thr-Leu-Ala-Lys-Ala-Pro-Glu-His-Thr-Gly-Lys(6FAM)-NH2] (Ac-SHSNTQTLAKAPEHTGK(6FAM)-NH2) | No detectable digested products | a new peak appeared | a new peak appeared | C-terminus lysine labeled with 6-FAM | stable | – | – | – | – | – |
| Ac-Glu-His-Thr-Gly-Lys(6FAM)-NH2 (Ac-EHTGK(6FAM)-NH2; SMILES CC(=O)N[C@@H](CCC(=O)O)C(=O)N[C@@H](Cc1c[nH]cn1)C(=O)N[C@H](C(=O)NCC(=O)N[C@@H](CCCCNC(=O)c1ccc2c(c1)C1(OC2=O)c2ccc(O)cc2Oc2cc(O)ccc21)C(N)=O)[C@@H](C)O) [Peptide 3] | – | – | – | – | – | high | greater | excellent; also recorded: very high | significantly less | much less |
